Reference: patent publication US20250353835A1, “N-TETRAZOLYL ARYL UREA-BASED DERIVATIVES, PREPARATION METHOD THEREFOR, AND USE THEREOF” (Hangzhou Yirui Pharmaceutical Technology Co., Ltd, priority 2022, published 2025)
One block for each compound: values may come before it.

Experiments:
[1] = test system: rat model of diabetic retinopathy; experiment: Rat model of diabetic retinopathy (STZ); type: in vivo, Wistar rats; conditions: Concanavalin A/FITC; 14 days after intravitreal injection; compounds 0.25%, dexamethasone 0.1%
Experimental: 3.1 Laboratory animals: SPF-grade male Wistar rats, weighed 180-220 g.
3.3 Animal modeling and grouping: After one week of adaptive feeding, 134 male Wistar rats (weighed 220-260 g) were administered 65 mg/kg of STZ by one-time intraperitoneal injection to prepare a rat model of type I diabetic. The rats were fasting but water was allowable overnight for 15 h. The formulated STZ solution was intraperitoneally injected according to body weight. After 1 h, the diet was resumed and blood glucose was measured at 72 h. The successfully modeled diabetic rats (120 rats) were selected for continued feeding, and randomly divided into the following 6 groups according to blood glucose (20 rats per group), plus a group of normal rats with no STZ injected as a negative control group.
3.4 Administration: The rats continued to be fed until blood glucose was measured once before administration. After blood glucose reached the standard, drugs were intravitreally injected, and indexs were subsequently tested after 14 days. Blood glucose was measured once before sampling.
3.5 Evans blue staining method (7 groups, 6 rats per group): Evans blue was intravenously injected. 2 hours later, normal saline was perfused into the left ventricle. The retina was taken to compare between the stained area and the unstained area to detect retinal vascular permeability.
3.6 Retinal leukocyte stasis detection method (7 groups, 6 rats per group): PBS was perfused into the left ventricle for 1 min to remove red blood cells and other substances. Concanavalin A (FITC (Sigma, C7642) was perfused (20 μg/ml in PBS, 5 mg/kg) to mark adherent leukocytes. 4% PFA was perfused for 4 min for fixation. 1% Albumin (Sigma, A6414) (in PBS) was perfused for 1 min, and then PBS was perfused for 2 min. The retina was taken for retinal wholemount. Thereafter, the stasis of leukocytes on the vascular endothelium was observed under a fluorescence microscope. […]

[2] = test system: mouse model of ragweed pollen-induced allergic conjunctivitis; experiment: Mouse model of ragweed pollen-induced allergic conjunctivitis; type: in vivo, Balb/c mice
Experimental: SPF-grade Balb/c mice (half male and half female, 6-8 weeks old) were used as experimental animals. On Day 0 and Day 6, ragweed pollen footpad injection was injected subcutaneously into the footpads of mice for sensitization (65 μl per mouse). On Days 10-14, in the model group, eye drop of ragweed pollen was applied to both eyes of the mice (10 μl per mouse) once a day. The eye drops were applied for 5 consecutive days to trigger local allergic conjunctivitis (Wu B, et al., Frontiers in Immunology, 2021, 12:4754). […] On Day 14, within 30 minutes after the final challenge, the ocular clinical symptoms of the mice were observed under a microscope and scored according to the scoring criteria reported by Magone et al. (MerayoLloves J, et al., J Allergy Clin Immunol (1996) 97(5):1129-40; Magone M T, et al., Clin Immunol Immunopathol (1998) 87(1):75-84), the allergic response of the eyes were observed, including 4 indexes: conjunctival edema, conjunctival congestion, eyelid congestion and edema, and tearing. The scores were recorded as 0-3 points according to the severity (including none, mild, moderate and severe). The left eye of the mouse was taken with the eyelid (keeping the conjunctiva intact), fixed with polyformaldehyde, sectioned in paraffin, Hematoxylin-Eosin stained (HE stained), and toluidine blue stained (for detection of mast cells). Photographs were taken to analyze the inflammatory cell infiltration of the conjunctival tissue, and observe whether the mast cells in the conjunctiva aggregated and whether a phenomenon of degranulation occurred. The expression of allergic indicators IL-4 and IgE in the conjunctival tissue was detected by immunohistochemistry.
The mouse eye, including the eyelids (with intact conjunctiva), was sectioned after deparaffinization, and subjected to antigen retrieval and serum blocking.
Diluted IL-4 or IgE antibodies were added and incubated overnight. After incubation with secondary antibodies, DAB staining was performed, followed by counterstaining with hematoxylin. The slides were then mounted and observed under an […], with photographs taken. Semi-quantitative analysis was conducted using Image-J software. Based on the cumulative optical density and regional area values of each image, the average optical density was calculated to detect the positive expression of IL-4 or IgE.

[3] = test system: rat model of acute lung injury; experiment: Rat model of LPS-induced acute lung injury; type: in vivo, Wistar rats; set-up: IL-6 (serum) / IL-6 (homogenate of lung tissue) / IL-6 (bronchoalveolar lavage fluid) / TNF-α (serum) / TNF-α (homogenate of lung tissue) / TNF-α (bronchoalveolar lavage fluid): unit not given here; conditions: ELISA; test drug 30 mg/kg i.p. 2 h before and 1 h after LPS; 12 h after modeling
Experimental: 1. Experimental aminals: SPF-grade male Wistar rats, weighed 180-220 g, 6-8 weeks old.
3. Establishment of animal model: The rats were adaptively fed for one week. After the animals were anesthetized, 3 mg/kg LPS (B8) was injected intratracheally to prepare the rat model of acute lung injury.
4. […] At 2 hours before modeling (before tracheal injection of LPS), the test drug (30 mg/kg, the vehicle was 0.3% DMSO in saline) was intraperitoneally injected. At 1 hour after modeling, the test drug was administered once again (at the same dose). At 12 hours after modeling, the animals were sacrificed, and the samples were collected for the tests of various indexes. […]
5.2 ELISA method: 5 rats per group. The serum, alveolar lavage fluid, and tissue homogenate of one lung of each of the rats were subjected to ELISA assay to determine the TNF-α and IL-6 levels.

[4] = Drug concentration in rat retinas after intraocular injection (HPLC); type: in vivo, Wistar rats; conditions: male, Wistar, rat, retina, other: intraocular injection, 5 μL of 0.5% solution per eye; Day 7 after intraocular injection of 0.5% (5 μL per eye); read-out: retinal drug concentration
Source text: 1.1 Experimental aminals: SPF-grade male Wistar rats weighed 180-220 g.
1.2 Drugs and reagents: Compound 71; sodium chloride injection (Shandong Qidu Pharmaceutical Co., Ltd., Batch No.: 3B151014124); acetonitrile (chromatographically pure, TEDIA, USA); methanol (chromatographically pure, SIGMA-ALDRICH product); triethylamine (analytically pure, Hangzhou Gaojing Fine Chemical Co., Ltd.).
1.3 Experimental grouping and administration: according to the sampling time, 33 male Wistar rats were divided into 11 groups (three rats per group) of: (1) control group; (2) 0 h; (3) 2 h; (4) 6 h; (5) 24 h; (6) 48 h; (7) 72 h; (8) 5 d; (9) 7 d; (10) 10 d; (11) 14 d. Three rats in the control group were injected with solvent (sterile normal saline) intraocularly, and the remaining 30 rats were injected with Compound 71 intraocularly at a concentration of 0.5% by using a 5 μL microinjector, and 5 μL of drug was injected per bulbus oculi.
1.4 Sampling and detection index: The retina of the rat in the control group was taken on Day 14 (14 d), and the retina of the remaining 30 rats was taken at the corresponding time points. The retina were frozen in liquid nitrogen, and then subjected to the subsequent HPLC detection.
1.5.1 Chromatographic conditions: The mobile phase was chromatographic grade acetonitrile-water=25-75 (v/v). The flow rate was 0.5 mL/min. The column temperature was 25° C. The UV detection wavelength was 254 nm. The injection volume was 20 μL.
1.5.2 Sample processing and preparation: the sample of the rat retina was taken out from the ultra-low temperature (−80° C.) refrigerator, accurately weighed and placed in a glass homogenizer, and ethyl acetate as an organic solvent pre-cooled in a 4° C. refrigerator was added at a ratio of 100 mL/g. The homogenizer was placed in an ice bath for homogenization. After homogenization, all the homogenate was poured into a 5 mL stoppered centrifuge tube. The centrifugation was performed at a low temperature of 4° C. for 5 min (5000 r/min). All the organic phase as the upper layer was accurately taken out and placed in a glass tube with conical bottom. The remaining residue of retina was extracted with 2 mL ethyl acetate repeatedly once. After centrifugation, the two organic phases were combined. Then, the centrifuge tube with conical bottom was blowed for dryness in a nitrogen flow in a 45° C. water bath. The residue was redissolved with 0.1 mL of chromatographic methanol, vortex mixed for 1 min, and centrifuged for 5 min at a high speed of 18000 r/min. 20 μL of the supernatant was taken, and analyzed in a high-performance liquid chromatography system.
1.5.3 Sample determination: After intraocular injection of 5 μL of 0.5% Compound 71, the retina was taken at different time points to analyze the drug content of the test compound in the retina.
1.5.4 Experimental results and conclusions: According to the retinal drug concentration-time curve, it is in conformity to the non-absorption two-compartment model. According to the pharmacokinetic non-absorption two-compartment model theory, the pharmacokinetic parameters of the drug were calculated.

[5] = target: T1, human B1R (Homo sapiens, UniProt P46663); experiment: FLIPR calcium ion flux assay, inhibitory activity against human B1R; type: cell-based; conditions: HEK293 cells stably expressing human B1R; agonist [Lys-des-Arg9]-Bradykinin 4.6 nM (EC80); FLIPR method
T1 construct: host or cells: HEK293
T1 sequence (P46663 1-353): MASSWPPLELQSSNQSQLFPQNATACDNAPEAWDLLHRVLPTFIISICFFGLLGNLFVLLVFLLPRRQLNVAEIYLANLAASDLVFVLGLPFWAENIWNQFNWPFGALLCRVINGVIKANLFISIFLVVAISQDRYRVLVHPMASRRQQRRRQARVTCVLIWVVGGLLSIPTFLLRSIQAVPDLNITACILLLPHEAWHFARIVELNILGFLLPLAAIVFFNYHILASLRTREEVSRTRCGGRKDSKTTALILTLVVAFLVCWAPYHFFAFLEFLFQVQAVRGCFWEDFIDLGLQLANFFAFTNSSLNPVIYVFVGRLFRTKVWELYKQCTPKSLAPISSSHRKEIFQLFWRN
Outline: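 HEK293 cells stably expressing human B1R, loaded with Fluo-4 Direct plus probenecid; compounds 9-point 1:5 series from 30 μM, duplicate, preincubated 10 min. Stimulation with [Lys-des-Arg9]-bradykinin at 4.6 nM final (EC80); peak fluorescence at 538 nm gave IC50.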

[6] = immunohistochemistry, dexamethasone 0.1% eye drop

Compound: C[C@@H]1C[C@H]2[C@@H]3CCC4=CC(=O)C=C[C@]4(C)[C@@]3(F)[C@@H](O)C[C@]2(C)[C@@]1(O)C(=O)CO [Dexamethasone, dexamethasone, reference compound]
retinal leukocyte stasis, Leukocyte count [1]: 4.17 ± 3.21
Clinical symptom score ([2]; 0.1% dexamethasone eye drop, twice a day for 14 days, Day 14 within 30 minutes after final challenge): 4.75 ± 0.51
expression of IL-4 in ocular tissue (average optical density) [2, 6]: 0.23±0.09
expression of IgE in ocular tissue (average optical density) [2, 6]: 0.53±0.11
IL-6 (bronchoalveolar lavage fluid) [3]: 115.59 ± 67.57
IL-6 (homogenate of lung tissue) [3]: 150.17 ± 100.46
IL-6 (serum) [3]: 255.58 ± 109.87
TNF-α (bronchoalveolar lavage fluid) [3]: 13.62 ± 7.33
TNF-α (homogenate of lung tissue) [3]: 19.17 ± 7.55
TNF-α (serum) [3]: 57.26 ± 19.27

concentration at 7 d [4]: 1540 nM
IC50 [5]: 148 nM
Compound: COc1ccc(-c2ccc(NC(=O)N3CCC(C(F)(F)F)CC3)cc2-c2nn[nH]n2)cc1OC [Compound 2, N-(3′,4′-dimethoxy-2-(2H-tetrazol-5-yl)-[1,1′-biphenyl]-4-yl)-4-(trifluoromethyl)piperidine-1-carboxamide]
